Laboratory results as given in patent US20220153732A1, “PROTEIN SECRETION INHIBITORS” (KEZAR LIFE SCIENCES, priority 2019, published 2022).
Read-outs that look alike come from different tables or passages of the source.

Assays:
Format in all cases: cell-based
[1] = test system: HER3-ss+4aa/Gaussia Luciferase; assay: Dox-Induced Her3-ss-Gluc Assay
Procedure, shortened: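 Stable T-REx cell line carrying a doxycycline-regulated HER3-ss+4aa/Gaussia luciferase insert, plated the day before assay. Compound dilutions in DMSO/media with doxycycline added, then incubated at 37° C., 5% CO2. Stereoisomer mixtures tested where stereochemistry is not drawn.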

[2] = test system: PD1-ss+10aa/Gaussia Luciferase; assay: Dox-Induced PD1-ss-Gluc Assay
Procedure, shortened: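 Stable cell line carrying PD1-ss+10aa/Gaussia luciferase cDNA under T-REx (doxycycline-inducible) control, plated the day before assay. Compound dilutions in DMSO/media containing doxycycline added and incubated at 37° C, 5% CO2. Undefined stereocentres: data refer to stereoisomer mixtures.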

[3] = test system: human multiple myeloma cell line NCI-H929; assay: H929 Cell Viability Assay; conditions: 48 hr, NCI-H929 cells, Celltiter-Glo, read-out: 48 hr H929 Viability Celltiter-Glo: Mean EC50
Description: Plates were incubated at 37° C., 5% CO2 for 48 hours. After 48 hours, Celltiter-Glo® (Promega) was added to each well and luciferase signal was quantified using Tecan Infinite M1000 Pro for cell viability determination.
For chemical structures that include one or more stereoisomers, but are illustrated without indicating stereochemistry, the assay data refers to a mixture of stereoisomers.

[4] = test system: human multiple myeloma cell line U266B1; assay: U266 Cell Viability Assay; conditions: U-266, 48 hr, U266B1 cells, Celltiter-Glo, read-out: 48 hr U266 Viability Celltiter-Glo: Mean EC50
Procedure, shortened: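 U266B1 myeloma cells treated with compound dilutions in DMSO/media for 48 h at 37 °C, 5% CO2. Viability read by CellTiter-Glo luminescence. Stereochemically undefined structures were tested as stereoisomer mixtures.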

[5] = test system: IL-2-FL/Gaussia Luciferase; assay: Dox Induced IL2-FL-Gluc Assay
Procedure, shortened: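 Stable T-REx cell line expressing doxycycline-inducible IL-2-FL/Gaussia luciferase cDNA, plated the day before assay. Compound dilutions in DMSO/media containing doxycycline added and incubated at 37° C., 5% CO2. Unspecified stereochemistry means data refer to a stereoisomer mixture.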

[6] = test system: TNFα-FL/Gaussia Luciferase; assay: Dox Induced TNFα-FL-Gluc Assay
Procedure, shortened: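 A stable T-REx cell line carrying doxycycline-inducible TNFα-FL/Gaussia luciferase was plated the day before assay. Compound dilutions in DMSO/media containing doxycycline were then added and incubated at 37° C, 5% CO2.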

[7] = 24 hr doxycycline induction, 293FRT/TO cells, Gaussia luciferase signal; read-out: 24 hr Dox Inducible Her3(ss + 4)Gluc 293FRT/TO: Mean IC50
[8] = 24 hr doxycycline induction, 293FRT/TO cells, Gaussia luciferase signal; read-out: 24 hr Dox Inducible PD1ssGluc 293FRT/TO: Mean IC50
[9] = 24 hr doxycycline induction, 293FRT/TO cells, Gaussia luciferase signal; read-out: 24 hr Dox Inducible IL2FLGIuc 293FRT/TO: Mean IC50
[10] = 24 hr doxycycline induction, 293FRT/TO cells, Gaussia luciferase signal; read-out: 24 hr Dox Inducible TNFaFLGluc 293FRT/TO: Mean IC50
[11] = 24 hr, doxycycline-induced, 293FRT/TO cells; read-out: 24 hr Dox Inducible Her3(ss + 4)Gluc 293FRT/TO: Mean IC50
[12] = 24 hr, doxycycline-induced, 293FRT/TO cells; read-out: 24 hr Dox Inducible PD1ssGluc 293FRT/TO: Mean IC50
[13] = 24 hr, doxycycline-induced, 293FRT/TO cells; read-out: 24 hr Dox Inducible IL2FLGIuc 293FRT/TO: Mean IC50
[14] = 24 hr, doxycycline-induced, 293FRT/TO cells; read-out: 24 hr Dox Inducible TNFaFLGluc 293FRT/TO: Mean IC50

| Structure (SMILES) | IC50 [1, 7] [µM] | IC50 [2, 8] [µM] | EC50 [3] [µM] | EC50 [4] [µM] | IC50 [5, 9] [µM] | IC50 [6, 10] [µM] | IC50 [1, 11] [µM] | IC50 [2, 12] [µM] | IC50 [5, 13] [µM] | IC50 [6, 14] [µM] | IC50 ([1]; read-out: 24 hr Dox Inducible Her3(ss + 4)Gluc 293FRT/TO: Mean IC50; 24 hr, doxycycline-induced, 293FRT/TO cells) [µM] | IC50 ([2]; read-out: 24 hr Dox Inducible PD1ssGluc 293FRT/TO: Mean IC50; 24 hr, doxycycline-induced, 293FRT/TO cells) [µM] | IC50 ([5]; read-out: 24 hr Dox Inducible IL2FLGIuc 293FRT/TO: Mean IC50; 24 hr, doxycycline-induced, 293FRT/TO cells) [µM] | IC50 ([6]; read-out: 24 hr Dox Inducible TNFaFLGluc 293FRT/TO: Mean IC50; 24 hr, doxycycline-induced, 293FRT/TO cells) [µM] |
| --- | --- | --- | --- | --- | --- | --- | --- | --- | --- | --- | --- | --- | --- | --- |
| CC(C)(OCC(F)(F)F)c1csc(NC(=O)c2cccn2Cc2ccncc2)n1 [Compound A15, 1-(pyridin-4-ylmethyl)-N-(4-(2-(2,2,2-trifluoroethoxy)propan-2-yl)thiazol-2-yl)-1H-pyrrole-2-carboxamide] | 0.318 | 0.169 | 16.6 | > 25 | 0.11 | 5.43 | – | – | – | – | – | – | – | – |
| Cc1cc(C(=O)Nc2nc(C(C)(C)OC(C)C)cs2)n(Cc2ccncc2)n1 [Compound A103] | > 25 | > 25 | > 25 | > 25 | > 25 | > 25 | – | – | – | – | – | – | – | – |
| COc1ccccc1/C=C/c1csc(NC(=O)c2cccn2Cc2ccncc2)n1 [Compound A158, N-(4-(2-methoxystyryl)thiazol-2-yl)-1-(pyridin-4-ylmethyl)-1H-pyrrole-2-carboxamide] | 0.993 | 0.293 | 15.7 | > 25 | 1.47 | 2.42 | – | – | – | – | – | – | – | – |
| CCc1sc(NC(=O)c2cccn2Cc2ccncc2)nc1CN1CCN(S(=O)(=O)CC)CC1 [Compound A92, N-(5-ethyl-4-((4-(ethylsulfonyl)piperazin-1-yl)methyl)thiazol-2-yl)-1-(pyridin-4-ylmethyl)-1H-pyrrole-2-carboxamide] | > 25 | 13.1 | > 25 | > 25 | > 25 | > 25 | – | – | – | – | – | – | – | – |
| O=C(Nc1nc(N2CCN(c3ccccc3)CC2)cs1)c1cccn1Cc1ccncc1 [Compound A266] | 9 | 6.25 | > 25 | > 25 | > 25 | > 25 | – | – | – | – | – | – | – | – |
| CC(C)(C)[Si](O[C@H]1C[C@H](c2csc(NC(=O)c3cccn3Cc3ccncc3)n2)N(c2ccccc2)C1)(c1ccccc1)c1ccccc1 [Compound A323] | – | – | 0.118 | > 25 | – | – | – | – | – | – | 0.013 | 0.007 | 0.01 | 0.011 |
| CCc1cc(NC(=O)c2cccn2Cc2ccncc2)ccc1C [Compound B10, N-(3-ethyl-4-methylphenyl)-1-(pyridin-4-ylmethyl)-1H-pyrrole-2-carboxamide] | – | – | > 25 | > 25 | – | – | > 25 | 11.9 | > 25 | > 25 | – | – | – | – |
| O=C(Nc1nc(Cc2ccccc2)cs1)c1cccn1CCCc1cccnc1 [Compound A187, N-(4-benzylthiazol-2-yl)-1-(3-(pyridin-3-yl)propyl)-1H-pyrrole-2-carboxamide] | > 21.9 | 10.4 | 18.3 | > 25 | 11.6 | > 25 | – | – | – | – | – | – | – | – |
| O=C(Nc1nc(C2CCN(Cc3ccccc3)CC2)cs1)c1cccn1Cc1ccncc1 [Compound A302] | – | – | > 25 | > 25 | – | – | 6.17 | 1.98 | 10.6 | > 25 | – | – | – | – |
| CC(C)OC(C)(C)c1csc(NC(=O)c2cccn2CCc2ccncc2)n1 [Compound A91, N-(4-(2-isopropoxypropan-2-yl)thiazol-2-yl)-1-(2-(pyridin-4-yl)ethyl)-1H-pyrrole-2-carboxamide] | > 25 | 11.9 | > 25 | > 25 | > 21.6 | > 25 | – | – | – | – | – | – | – | – |
| O=C(Nc1nc([C@H]2C[C@H](c3ccccn3)C2)cs1)c1cccn1Cc1ccncc1 [Compound A350] | – | – | > 25 | > 25 | – | – | 2.39 | 0.707 | > 25 | 14.9 | – | – | – | – |
| CC(C)c1csc(NC(=O)[C@H]2CCCN2C(=O)c2ccncc2)n1 [Compound B21, (R)-1-isonicotinoyl-N-(4-isopropylthiazol-2-yl)pyrrolidine-2-carboxamide] | – | – | > 25 | > 25 | – | – | > 25 | > 25 | > 25 | > 25 | – | – | – | – |
| CCc1cnccc1Cn1cccc1C(=O)Nc1nc(C(C)(C)OC(C)C)cs1 [Compound A250, 1-((3-ethylpyridin-4-yl)methyl)-N-(4-(2-isopropoxypropan-2-yl)thiazol-2-yl)-1H-pyrrole-2-carboxamide] | 15.7 | 5.28 | > 25 | > 25 | 7.4 | > 25 | – | – | – | – | – | – | – | – |
| CC(C)OC1(c2csc(NC(=O)c3cccn3Cc3ccncc3)n2)CC1 [Compound A123] | > 25 | > 25 | > 25 | > 25 | > 25 | > 25 | – | – | – | – | – | – | – | – |

The remaining compounds from weak to strong by EC50 [3], led by results:

| IC50 [1, 7] [µM] | IC50 [2, 8] [µM] | EC50 [3] [µM] | EC50 [4] [µM] | IC50 [5, 9] [µM] | IC50 [6, 10] [µM] | IC50 [1, 11] [µM] | IC50 [2, 12] [µM] | IC50 [5, 13] [µM] | IC50 [6, 14] [µM] | Structure (SMILES) | IC50 ([1]; read-out: 24 hr Dox Inducible Her3(ss + 4)Gluc 293FRT/TO: Mean IC50; 24 hr, doxycycline-induced, 293FRT/TO cells) [µM] | IC50 ([2]; read-out: 24 hr Dox Inducible PD1ssGluc 293FRT/TO: Mean IC50; 24 hr, doxycycline-induced, 293FRT/TO cells) [µM] | IC50 ([5]; read-out: 24 hr Dox Inducible IL2FLGIuc 293FRT/TO: Mean IC50; 24 hr, doxycycline-induced, 293FRT/TO cells) [µM] | IC50 ([6]; read-out: 24 hr Dox Inducible TNFaFLGluc 293FRT/TO: Mean IC50; 24 hr, doxycycline-induced, 293FRT/TO cells) [µM] |
| --- | --- | --- | --- | --- | --- | --- | --- | --- | --- | --- | --- | --- | --- | --- |
| – | – | 11.3 | > 25 | – | – | 0.582 | 0.289 | 0.475 | 3.01 | O=C(Nc1nc([C@H]2CC[C@H]2c2ccccc2)cs1)c1cccn1Cc1ccncc1 [Compound A324] | – | – | – | – |
| 0.28 | 0.085 | 11 | > 25 | 0.854 | 1.58 | – | – | – | – | O=C(Nc1nc(/C=C/C2CCCCC2)cs1)c1cccn1Cc1ccncc1 [Compound A152, N-(4-(2-cyclohexylvinyl)thiazol-2-yl)-1-(pyridin-4-ylmethyl)-1H-pyrrole-2-carboxamide] | – | – | – | – |
| 2.39 | 0.878 | 9.52 | > 25 | 1.98 | 12 | – | – | – | – | CC(C)OC(C)(C)c1csc(NC(=O)c2cccn2Cc2ccncc2Br)n1 [Compound A41, 1-((3-bromopyridin-4-yl)methyl)-N-(4-(2-isopropoxypropan-2-yl)thiazol-2-yl)-1H-pyrrole-2-carboxamide] | – | – | – | – |
| 0.535 | 0.087 | 7.7 | > 25 | 1.01 | 3.24 | – | – | – | – | CC(C)Oc1ccc(/C=C/c2csc(NC(=O)c3cccn3Cc3ccncc3)n2)cc1 [Compound A236, N-(4-(4-isopropoxystyryl)thiazol-2-yl)-1-(pyridin-4-ylmethyl)-1H-pyrrole-2-carboxamide] | – | – | – | – |
| – | – | 7.5 | > 25 | – | – | 0.45 | 0.167 | 0.259 | 0.954 | O=C(Nc1nc([C@H]2[C@H](O)CCN2c2ccccc2)cs1)c1cccn1Cc1ccncc1 [Compound A351] | – | – | – | – |
| 0.864 | 0.324 | 7.08 | 12.5 | 1.51 | 4.66 | – | – | – | – | O=C(Nc1nc(C2CCN(c3ccccc3)CC2)cs1)c1cccn1Cc1ccncc1 [Compound A282] | – | – | – | – |
| – | – | 6.47 | 9.05 | – | – | 0.138 | 0.08 | 0.11 | 0.775 | CO[C@H]1CCN(c2ccccc2)[C@H]1c1csc(NC(=O)c2cccn2Cc2ccncc2)n1 [Compound A334] | – | – | – | – |
| – | – | 6.27 | 14.3 | – | – | 0.108 | 0.02 | 0.178 | 0.236 | O=C(Nc1nc(/C=C/c2ccc(OC3CC3)cc2F)cs1)c1cccn1Cc1ccncc1 [Compound A304] | – | – | – | – |
| 0.304 | 0.056 | 5.79 | > 25 | 0.633 | 2.22 | – | – | – | – | O=C(Nc1nc(/C=C/c2ccc(N3CCCCC3)cc2)cs1)c1cccn1Cc1ccncc1 [Compound A233] | – | – | – | – |
